In patent US20260283997A1, “METHODS FOR INHIBITING RESISTANCE TO IMMUNE BLOCKADE INHIBITOR THERAPY” (H. LEE MOFFITT CANCER CENTER AND RESEARCH INSTITUTE, INC., priority 2023, published 2026):
Entries after “also recorded” stand apart in the source; their conditions may differ.

Columns and labels:
[1] = tested on: STAT1; assay: pSTAT1 flow cytometry of normal donor PBMCs stimulated with interferon-alpha; assay type: cell-based, human
Protocol: FIGS. 20A, 20B, and 20C show Interferon-alpha stimulation of normal donors PBMCs.
(§1) Flow cytometry and mass spectrometry analyses. Flow cytometric analysis of pSTAT1 and liquid chromatography-tandem mass spectrometry (LC-MS-MS) analysis of nitrated STAT1 (nSTAT1) were conducted on all samples. For flow cytometry studies, frozen PBMCs were thawed at 37° C., washed with culturing media, and allowed to rest overnight in complete media at 5% CO2 at 37° C. PBMCs were stimulated with interferon-α (Miltenyi Biotec, Cambridge, MA) at 0, 10^2 U/mL, and 10^4 U/mL and incubated for 15 minutes in media.
(§2) The live/dead marker Zombie NIR (BioLegend, San Diego, CA) was used before permeabilization to distinguish live cells. The samples were permeabilized using the FIX & PERM Cell Permeabilization Kit with methanol modification (Fisher Scientific, Hampton, MA) and fixed at −20° C. for a minimum of 2 hours. pSTAT1 was detected by a pSTAT1 antibody (AF488; BD Biosciences, San Jose, CA). Flow cytometry data were collected either on Canto or LSRII flow cytometers (BD Biosciences, San Jose, CA), and data were analyzed in FCS Express (De Novo Software, Pasadena, CA). Measurement of patient-derived PBMCs for nSTAT1 and native STAT1 via LC-MS-MS SRM experiments was performed. […]

[2] = tested on: stage III melanoma; conditions: cited from earlier work
[3] = tested on: antigen presentation from DCs to CD4+ T cells; assay: DC antigen presentation to OT-II CD4+ T cells, [3H]-thymidine incorporation; assay type: cell-based, mouse; conditions: for MDSC inhibition of antigen presentation in the presence of iNOS inhibitor: MDSCs derived from B16 melanoma, OVA peptide stimulus
Protocol: For space constraints only the OVA peptide stimulus is depicted in B and C.
The effects of NO on DC function using transgenic mice were evaluated that express a T cell receptor (TCR) specific for a defined antigen, namely OVA. […] Levels of SNAP or other NO donors such as deta-NONOate can be adjusted to mimic the physiological concentration of NO within MDSCs and be utilized to directly measure binding of tetramers to the TCR complex. To simulate a real world scenario of antigen expressed naturally by the B16 tumors as advised by the reviewers, We can utilize transgenic mice that express a T cell receptor (TCR) specific for the Tyrosinase-Related Protein 1 (Trp-1).

[4] = tested on: B16 melanoma; assay: PD-1 refractory B16 melanoma model; assay type: in vivo, mouse
Excerpt: NCX-4016 is a nitroaspirin and inhibits the nitric oxide synthase via a negative feedback mechanism. These compounds are available for clinical trial use, and have a toxicity profile that is favorable for evaluation in patients with advanced malignancies. I predict nitroaspirin compounds in combination with anti-PD-1 therapy can rescue the ability to stimulate CD4^+ T cells and decrease tumor growth. […] We can use nitroaspirin alone and along with anti-PD-1 in therapeutically achievable doses in the murine B16 melanoma model to measure tumor growth curves and obtain specimens for analyses.

[5] = tested on: B16 melanoma cells; assay: Cytotoxicity of PMEL CD8 T cells against gp-100 coated B16 cells, flow cytometry; assay type: cell-based; conditions: 100 μM; p=0.02
Protocol: Cytoxicity was measured via flow cytometry with CellTrace™ Far Red (B16 cells) and a live/dead marker (Zombie™ Green).

[6] = tested on: STAT1; assay: Nitrated STAT1 by immunoblot after nitrated tyrosine immunoprecipitation in normal donor PBMC; assay type: cell-based; conditions: normal donor human PBMC
Excerpt: An increased [nSTAT1]/[STAT1] ratio can be associated with resistance to anti-PD-1 therapy. Unfractionated PBMC samples are utilized for the mass spectrometry experiments as they are routinely collected from patients and with the expectation of STAT1 having increased nitration (FIG. 4). A second aliquot of PBMCs from the patients can be stimulated in parallel with IFN and subsequent downstream activation determined via measurement of phosphorylated STAT1. Activation of STAT1 can be measured by intracellular staining for activated (i.e. phosphorylated) STAT1 using flow cytometry. IFN responsiveness decreases by ~30% in metastatic cancer patients. There is an inverse relationship between the levels of pSTAT1 and levels of nitrated STAT1. As a control, STAT1 nitration can be measured in normal donor PBMCs treated with SNAP via immunoblot (FIG. 13). As such, PBMCs from melanoma patients can be compared to normal donors. […] Additional nitrated proteins can be quantified in the future via LC-MRM (Liquid Chromatography, multiple reaction monitoring) including the targets outlined in the introductory material (assay requires <200,000 cells); and can expand the list of which nitration events are important for response to anti-PD1 therapy in case STAT1 is not the only important target.

[7] = tested on: T cells; assay: T cell proliferation after tetanus toxoid antigen presentation from human DC in PBMC sample; assay type: cell-based; conditions: tetanus toxoid 1 ug/ul
[8] = tested on: resected stages IIIC/IV melanoma; assay: Phase II trial of adjuvant ipilimumab with a peptide vaccine, clinical outcome; assay type: in vivo, human
Protocol: Patient samples. […] Peripheral blood leukocytes were collected before initiation of ipilimumab treatment and at approximately 150 days after the first treatment. PBMCs were available and were de-identified before inclusion in our current study.
Statistical analyses. We conducted statistical analyses to determine whether there is a relationship between levels of pSTAT1, nSTAT1, and RFS. Survival outcome was summarized using Kaplan-Meier method and log-rank test was performed to evaluate the association of survival outcome with pSTAT1 and nSTAT1 levels dichotomized by the median-split method. […] Levene's F-test for the homogeneity of variance was used to compare variance of pSTAT1 level among patients with different RFS rates. Patients were also stratified using the median-split method for a survival comparison analysis of [nSTAT1]post-[nSTAT1]pre with ipilimumab treatment. […] A two-sided P value of <0.05 was considered statistically significant. Treatment outcome is reported at the end of the follow up period for the parent trial (5 years).
Patient demographics. Pre- and post-therapy PBMCs were available from 35 patients with resected stages IIIC/IV melanoma.

[9] = tested on: STAT1; assay: pSTAT1 flow cytometry of patient PBMCs pre versus post ipilimumab; assay type: in vivo, human
Protocol: FIGS. 22A, 22B, and 22C show the paired pSTAT1 level pre versus post ipilimumab treatment without (FIG. 22A) Interferon-alpha stimulation, after (FIG. 22B) 10^2 U/mL Interferon-alpha stimulation, and (FIG. 22C) 10^4 U/mL Interferon-alpha stimulation.
as §1
as §2, with “CA).” for “CA). Measurement of patient-derived PBMCs for nSTAT1 and native STAT1 via LC-MS-MS SRM experiments was performed.”

[10] = tested on: stage IIIB through IV melanoma; conditions: adjuvant, cited from earlier work; for 12-month RFS rate: stage IIIB through IV melanoma
[11] = n = 35, end of follow up period (5 years)

Molecule: interferon-α
- pSTAT1 levels with increasing interferon levels [1]: concentration-dependent increase in pSTAT1 levels
- concentration showing near-maximum phosphorylation of STAT1 ([1]; 15 minutes of treatment): 500 U/ml

Molecule: pembrolizumab: Monoclonal antibody against PD-1
- efficacy compared to interferon-α or ipilimumab [2]: increased efficacy

Molecule: COC(=O)[C@@H](N)CCCNC(=N)N[N+](=O)[O-] [L-NAME, L-nitroarginine methyl ester]
- MDSC inhibition of antigen presentation in the presence of iNOS inhibitor [3]: this effect was abrogated

Molecule: CC(=O)Oc1ccccc1C(=O)Oc1cccc(CO[N+](=O)[O-])c1 [NCX-4016]
- MDSC inhibition of antigen presentation in the presence of iNOS inhibitor [3]: this effect was abrogated
- iNOS expression with iNOS inhibitor in-vivo ([4]; B16 melanoma model): iNOS expression is decreased
- efficacy in combination with anti-PD1 blockade ([4]; PD-1 refractory B16 melanoma model, combination with anti-PD-1): more efficacious than either treatment alone; also recorded: increases the efficacy of anti-PD1 blockade

Molecule: CC(=O)NC(C(=O)O)C(C)(C)SN=O (racemic) [SNAP, S-Nitroso-N-Acetyl-D,L-Penicillamine]
- DC antigen presentation to CD4+ T cells (proliferation of OT-II T cells) ([3]; nitric oxide donor SNAP, DCs and CD4+ T cells ratio 1:4 from OT-II mouse): inhibit DC antigen presentation to CD4+ T cells
- cytotoxicity of target B16 melanoma cells by effector PMEL CD8 T cells [5]: reduced
- levels of nitrated STAT1 [6]: elevated levels of nitrated STAT1
- proliferation of T cells after antigen presentation of tetanus toxoid [7]: decreases proliferation of T cells

Molecule: ipilimumab: Monoclonal antibody against CTLA-4
- RFS, 3 mg/kg vs 10 mg/kg ([8]; Log rank P-value=0.96): no statistical significant differences in RFS
- Treatment outcome AWD (alive with disease), Percentage [8, 11]: 6%
- Treatment outcome DOD (died of disease), Percentage [8, 11]: 17%
- Treatment outcome NED (no evidence of disease), Percentage [8, 11]: 77%
- levels of STAT1 pre versus post treatment ([9]; 10 mg/kg cohort, t-test, p<0.01): statistically significant increase
- changes in pSTAT1 between the 10 mg/kg and 3 mg/kg cohorts ([9]; 150 days post treatment): no statistically significant changes in pSTAT1
- 12-month RFS rate [10]: 60.8%

Molecule: nivolumab: Monoclonal antibody against PD-1
- 12-month RFS rate [10]: 70.5%
- toxicity compared to ipilimumab [10]: significantly decreased toxicity
